According to patent US8912121B2, “Herbicidal compositions comprising 4-amino-3-chloro-5-fluoro-6-(4-chloro-2-fluoro-3-methoxyphenyl)pyridine-2-carboxylic acid or a derivative thereof and certain PS II inhibitors” (Dow Agrosciences LLC, priority 2012, dated 2014):
Where two headings read alike, the source gives them in different places.

Experiments:
[1] = tested on: IPOHE (Ipomoea hederacea, ivyleaf morningglory); test: Postemergence foliar-applied mixtures, direct seeded rice, greenhouse; format: in vivo, Ipomoea hederacea Jacq.; conditions: post-emergence, read-out: Visual Weed Control (%) Obs
From the text: (§1) Seeds or nutlets of the desired test plant species were planted in a soil matrix prepared by mixing a loam or sandy loam soil (e.g., 28.6 percent silt, 18.8 percent clay, and 52.6 percent sand, with a pH of about 5.8 and an organic matter content of about 1.8 percent) and calcareous grit in an 80 to 20 ratio. The soil matrix was contained in plastic pots with a volume of 1 quart and a surface area of 83.6 square centimeters (cm^2). When required to ensure good germination and healthy plants, a fungicide treatment and/or other chemical or physical treatment was applied. The plants were grown for 8-22 days in a greenhouse with an approximate 14 h photoperiod which was maintained at about 29° C. during the day and 26° C. during the night. Nutrients (Peters Excel® 15-5-15 5-Ca 2-Mg and iron chelate) were applied in the irrigation solution as needed and water was added on a regular basis. Supplemental lighting was provided with overhead metal halide 1000-Watt lamps as necessary. The plants were employed for testing when they reached the first through fourth true leaf stage.
(§2) Treatments consisted of the acid or esters of 4-amino-3-chloro-5-fluoro-6-(4-chloro-2-fluoro-3-methoxy-phenyl) pyridine-2-carboxylic acid (Compound A), each formulated as an SC (suspension concentrate), and various herbicidal components alone and in combination. Forms of compound A were applied on an acid equivalent basis.
(§3) Other herbicidal components were applied on an active ingredient basis and included Photosystem II (PSII)-inhibiting herbicides propanil formulated as Stam® M4 EC, bentazon-sodium formulated as Basagran®, atrazine formulated as Atrazine 90 WDG, bromoxynil octanoate ester formulated as Buctril®, simetryne (technical grade material), simazine formulated as Princep® Caliber 90, ioxynil (technical grade material), cyanazine (technical grade material), and hexazinone (technical grade material).
(§4) Treatment requirements were calculated based upon the rates being tested, the concentration of active ingredient or acid equivalent in the formulation, and a 12 mL application volume at a rate of 187 L/ha.
(§5) For treatments comprised of formulated compounds, measured amounts of compounds were placed individually in 25 mL glass vials and diluted in a volume of 1.25% (v/v) Agri-Dex® crop oil concentrated to obtain 12× stock solutions. […] Application solutions were prepared by adding an appropriate amount of each stock solution (e.g., 1 mL) and diluted to the appropriate final concentrations with the addition of 10 mL of an aqueous mixture of 1.25% (v/v) crop oil concentrate so that the final spray solutions contained 1.25+/−0.05% (v/v) crop oil concentrate.
(§6) For treatments comprised of technical compounds, weighed amounts can be placed individually in 25 mL glass vials and dissolved in a volume of 97:3 v/v acetone/DMSO to obtain 12× stock solutions. […] Application solutions can be prepared by adding an appropriate amount of each stock solution (e.g., 1 mL) and diluted to the appropriate final concentrations with the addition of 10 mL of an aqueous mixture of 1.5% (v/v) crop oil concentrate so that the final spray solutions contain 1.25% (v/v) crop oil concentrate. When technical materials are used, the concentrated stock solutions can be added to the spray solutions so that the final acetone and DMSO concentrations of the application solutions are 16.2% and 0.5%, respectively.
(§7) For treatments comprised of formulated and technical compounds, weighed amounts of the technical materials were placed individually in 25 mL glass vials and dissolved in a volume of 97:3 v/v acetone/DMSO to obtain 12× stock solutions, and measured amounts of the formulated compounds were placed individually in 25 mL glass vials and diluted in a volume of 1.5% (v/v) crop oil concentrate or water to obtain 12× stock solutions. […]

[2] = tested on: COMBE (Commelina benghalensis, Benghal dayflower); test: as above; format: in vivo, Commelina benghalensis L.; conditions: 280 g ai/ha; 20 DAA
From the text: as §1, with “stage. […]” for “stage.”
as §4
(§8) For treatments comprised of formulated compounds, measured amounts of compounds were placed individually in 25 mL glass vials and diluted in a volume of 1.25% (v/v) Agri-Dex® crop oil concentrated to obtain 12× stock solutions. […]
as §7

[3] = tested on: SCPMA (Schoenoplectus maritimus, sea clubrush); test: In-water applied mixtures, transplanted paddy rice, greenhouse; format: in vivo, Schoenoplectus maritimus (L.) Lye; conditions: 1120 g ae/ha; 20 DAA
Description: (§9) Weed seeds or nutlets of the desired test plant species were planted in puddled soil (mud) prepared by mixing a shredded, non-sterilized mineral soil (50.5 percent silt, 25.5 percent clay, and 24 percent sand, with a pH of about 7.6 and an organic matter content of about 2.9 percent) and water at a 1:1 volumetric ratio. The prepared mud was dispensed in 365 mL aliquots into 16-ounce (oz.) non-perforated plastic pots with a surface area of 86.59 square centimeters (cm^2) leaving a headspace of 3 centimeters (cm) in each pot Mud was allowed to dry overnight prior to planting or transplanting. Rice seeds were planted in Sun Gro MetroMix® 306 planting mixture, which typically has a pH of 6.0 to 6.8 and an organic matter content of about 30 percent, in plastic plug trays. Seedlings at the second or third leaf stage of growth were transplanted into 840 mL of mud contained in 32-oz. non-perforated plastic pots with a surface area of 86.59 cm^2 4 days prior to herbicide application. The paddy was created by filling the headspace of the pots with 2.5 to 3 cm of water. When required to ensure good germination and healthy plants, a fungicide treatment and/or other chemical or physical treatment was applied. The plants were grown for 4-22 days in a greenhouse with an approximate 14 h photoperiod which was maintained at about 29° C during the day and 26° C. during the night. Nutrients were added as Osmocote® (19:6:12, N:P:K+ minor nutrients) at 2 g per 16-oz. pot and 4 g per 32-oz. pot. Water was added on a regular basis to maintain the paddy flood, and supplemental lighting was provided with overhead metal halide 1000-Watt lamps as necessary. The plants were employed for testing when they reached the first through fourth true leaf stage.
(§10) Treatments consisted of the acid or esters of 4-amino-3-chloro-5-fluoro-6-(4-chloro-2-fluoro-3-methoxy-phenyl)pyridine-2-carboxylic acid (compound A) each formulated as an SC (suspension concentrate) and various herbicidal components alone and in combination. Forms of compound A were applied on an acid equivalent basis.
(§11) Other herbicidal components were applied on an active ingredient basis and included photosystem II (PSII)-inhibits propanil formulated as […] bentazon-sodium formulated as Basagran®, and simetryne (technical grade material).
(§12) Treatment requirements for each compound or herbicidal component were calculated based upon the rates being tested, the concentration of active ingredient or acid equivalent in the formulation, an application volume of 2 mL per component per pot, and an application area of 86.59 cm^2 per pot.
(§13) For formulated compounds, a measured amount was placed in an individual 100 or 200 mL glass vial and was dissolved in a volume of 1.25% (v/v) Agri-Dex® crop oil concentrate to obtain application solutions.
(§14) For technical grade compounds, a weighed amount was placed in an individual 100 to 200 mL glass vial and was dissolved in a volume of acetone to obtain concentrated stock solutions. […] The concentrated stock solutions obtained were diluted with an equivalent volume of an aqueous mixture containing 2.5% (v/v) crop oil concentrate so that the final application solutions contained 1.25% (v/v) crop oil concentrate.
(§15) Applications were made by injecting with a pipetter appropriate amounts of the application solutions, individually and sequentially, into the aqueous layer of the paddy. Control plants were treated in the same manner with the solvent blank. Applications were made so that all treated plant material received the same concentrations of acetone and crop oil concentrate.
(§16) The treated plants and control plants were placed in a greenhouse as described above and water was added as needed to maintain a paddy flood. After approximately 3 weeks the condition of the test plants as compared with that of the untreated plants was determined visually and scored on a scale of 0 to 100 percent where 0 corresponds to no injury or growth inhibition and 100 corresponds to complete kill. […]

[4] = tested on: ECHCG (Echinochloa crusgalli, barnyardgrass); test: as above; format: in vivo, Echinochloa crusgalli (L.) Beauv.; conditions: 21 DAA
Description: as §9, with “stage. […]” for “stage.”
as §12
For formulated compounds, a measured amount was placed in an individual 100 or 200 mL glass vial and was dissolved in a volume of 1.25% (v/v) Agri-Dex® crop oil concentrate to obtain application solutions. […]
as §16

[5] = tested on: LEFCH (Leptochloa chinensis, Chinese sprangletop); test: as above; format: in vivo, Leptochloa chinensis (L.) Nees
Description: as §9, §10, §11, §12, §13, §14, §15, §16

[6] = tested on: ECHOR (Echinochloa oryzoides, early watergrass); test: as above; format: in vivo, Echinochloa oryzoides (Ard.) Fritsch
Description: as §9, §10, §11, §12, §13, §14, §15, §16

[7] = tested on: ECHCO (Echinochloa colona, junglerice); test: Postemergence foliar-applied mixtures, direct seeded rice, greenhouse; format: in vivo, Echinochloa colona (L.) Link; conditions: 450 g ai/ha; 21 DAA
From the text: as §1, §2, §3, §4, §5, §6, §7

[8] = tested on: CYPIR (Cyperus iria, rice flatsedge); test: as above; format: in vivo, Cyperus iria L.; conditions: 22 DAA
From the text: as §1, §2, §3, §4, §5, §6, §7

[9] = tested on: LEFCH (Leptochloa chinensis, Chinese sprangletop); test: as above; format: in vivo, Leptochloa chinensis (L.) Nees; conditions: 225 g ai/ha; 22 DAA
From the text: as §1, with “stage. […]” for “stage.”
as §4, §8, §7

[10] = tested on: FIMMI (Fimbristylis miliacea, globe fringerush); test: In-water applied mixtures, transplanted paddy rice, greenhouse; format: in vivo, Fimbristylis miliacea (L.) Vahl; conditions: 19 DAA
Description: as §9, §10, §11, §12, §13
For technical grade compounds, a weighed amount was placed in an individual 100 to 200 mL glass vial and was dissolved in a volume of acetone to obtain concentrated stock solutions. […]
as §16

[11] = tested on: CYPRO (Cyperus rotundus, purple nutsedge); test: as above; format: in vivo, Cyperus rotundus L.; conditions: 19 DAA
Description: as §9, §10, §11, §12, §13, §14, §15, §16

CC(C)N1C(=O)c2ccccc2NS1(=O)=O [Bentazon-sodium, 3-(1-methylethyl)-1H-2,1,3-benzothiadiazin-4(3H)-one 2,2-dioxide, reference compound]
pest or weed control at 840 g/ha ([1]; 480 h, 840 g ae/ha, 20 DAA): 13%
pest or weed control at 105 g/ha ([1]; 504 h, 105 g ai/ha, 21 DAA): 0%
pest or weed control at 210 g/ha ([1]; 504 h, 210 g ai/ha, 21 DAA): 0%
pest or weed control at 420 g/ha ([1]; 504 h, 420 g ai/ha, 21 DAA): 10%
pest or weed control at 840 g/ha ([1]; 504 h, 840 g ai/ha, 21 DAA): 13%
Visual Weed Control (%) Obs [2]: 10%
Visual Weed Control (%) Obs [3]: 0%
Visual Weed Control (%) Obs ([4]; 420 g ae/ha): 0%
Visual Weed Control (%) Obs ([4]; 840 g ae/ha): 0%
Visual Weed Control (%) Obs ([5]; 420 g ae/ha, 21 DAA): 0%
Visual Weed Control (%) Obs ([5]; 840 g ae/ha, 21 DAA): 0%
Visual Weed Control (%) Obs ([5]; 1120 g ae/ha, 20 DAA): 0%
Visual Weed Control (%) Obs ([6]; 1120 g ae/ha, 20 DAA): 0%

CCNc1nc(NCC)nc(SC)n1 [Simetryne, N,N′-diethyl-6-(methylthio)-1,3,5-triazine-2,4-diamine, reference compound]
Visual Weed Control (%) Obs [7]: 45%
Visual Weed Control (%) Obs ([8]; 112.5 g ai/ha): 0%
Visual Weed Control (%) Obs ([8]; 225 g ai/ha): 0%
Visual Weed Control (%) Obs ([8]; 450 g ai/ha): 30%
Visual Weed Control (%) Obs [9]: 40%
Visual Weed Control (%) Obs ([6]; 112.5 g ai/ha, 19 DAA): 0%
Visual Weed Control (%) Obs ([6]; 225 g ai/ha, 19 DAA): 10%
Visual Weed Control (%) Obs ([10]; 112.5 g ai/ha): 45%
Visual Weed Control (%) Obs ([10]; 225 g ai/ha): 90%
Visual Weed Control (%) Obs ([11]; 112.5 g ai/ha): 0%
Visual Weed Control (%) Obs ([11]; 225 g ai/ha): 0%
Visual Weed Control (%) Obs ([11]; 450 g ai/ha): 0%
